Patent publication US20070213297A1, “Arrays with cleavable linkers” (priority 2004, published 2007)
Marks after values point to notes of the source that are not given here.

Legend:
2G12 anti-HIV antibody = test: 2G12 binding to glycan array printed on glass slide; parameters: species or system human; conditions: for Rel. spec. (relative binding activity of 2G12): glass slide glycan array, 2G12 pre-complexed with anti-IgG-FITC; for 2G12 binding on glycan array (in words): initial experiments
Method: Construction of a glycan array printed on a glass slide: The library of carbohydrate structures was obtained through chemical and chemo-enzymatic synthesis as described above, as well as natural sources. This compound library contained a N-hydroxy succinimide (NHS)-reactive primary amino group, which was printed on a commercial NHS-activated glass surface (Accelr8 Technology Corporation, Denver, Colo.) using a microarray gene printer (TSRI).
Each glycan type was printed (≈0.5 nL/spot) at various concentrations (10-100 μM) and each concentration in a replicate of six. Slides were further incubated with ethanolamine buffer to deactivate remaining NHS functional groups.
The 2G12 antibody was pre-complexed (for 10 min) with secondary human anti-IgG-FITC (2:1, 20 μg/mL) prior to application to the glycan array. After incubation with the 2G12 antibodies, the array washed by dipping the slide in buffer and water.

chicken ST6GalNAc-I = target: T1, chicken ST6GalNAc-I (Gallus gallus, UniProt Q92183); test: chST6GalNAc-I activity on small acceptor molecules; assay type: biochemical; conditions: α-D-galacto derivatives as acceptors
T1 construct: made in house; host or cells: insect cells
Text: The inventors have previously reported the cloning, expression, and characterization of chicken ST6GalNAc-I and its use in preparative synthesis of the O-linked sialoside antigens, STn-, α(2-6)SiaT-, α(2-3)SiaT- and Di-SiaT-antigen. Blixt, O.; Allin, K.; Pereira, L.; Datta, A. and Paulson, J. C., J. Am. Chem. Soc. 2002, 124, 5739-5746. Briefly, the recombinant enzyme was expressed in insect cells and purified by CDP-sepharose affinity chromatography to generate approximately 10 U/L of cell culture.

β3GlcNAcT = β3GlcNAcT acceptor specificity; assay type: biochemical, N. meningitidis; conditions: as acceptor substrate; lactose (4) = 100%
Method: Both enzymes, β4GalT-GalE and β3GlcNAcT, were over expressed in E. coli AD202 in a large-scale fermentor (100 L). Bacteria were cultured in 2YT medium and induced with iso-propyl-thiogalactopyranoside (IPTG) to ultimately produce 8-10 g of bacterial cell paste/L cell media. The enzymes were then released from the cells by a microfluidizer and were solubilized in Tris buffer (25 mM, pH 7.5) containing manganese chloride (10 mM) and Triton X (0.25%) to reach enzymatic activities of about 50 U/L and 115 U/L of cell culture β4GalT-GalE and β3GlcNAcT, respectively.
The structures of these disaccharides are provided below. [drawing 17]
Adding the hydrophobic para-nitrophenyl ring as an aglycon to the reducing end of the acceptors enhanced the activity of the enzyme up to 10 fold (compare 4 with 5 and 6 with 7). The increase in the enzyme activity by adding a hydrophobic aglycon to the acceptor sugar, though to the lesser extent, has also been shown for β4GalT (compare 12 with 13, 14). The relaxed substrate specificity of these enzymes makes them very useful for preparative synthesis of various carbohydrate structures, including poly-N-acetyllactosamines.

2G12 antibody [1] = test: Carbohydrate microarray analysis of oligomannose-2G12 binding (microtiter plate); parameters: species or system human
Method: Carbohydrate microarray analysis. Ninety-six well NHS-coated microtiter plates (NoAb Biodiscoveries) were treated with 200 μL of a 1 mM methanolic solution of the amino-functionalized disulfide and alkyne containing linker (scheme V) containing 5% diisopropylethylamine (DIEA) and incubated overnight at 4° C. The microtiter plate was then washed with 2×200 μL methanol and 2×200 μL water. Next, 200 μL solutions of azido-functionalized oligomannose derivatives 21-25 at varying concentrations from 0 to 500 μM in 5% DIEA/methanol were introduced. A sprinkle of copper (I) iodide was added and the contents were allowed to react overnight at 4° C. The next day, the contents were removed and the plates were washed with 2×200 μL methanol and 2×200 μL water. The plates were then blocked with 0.1% Tween20 solution in HEPES buffer pH 7.5 at 4° C. for 1 hour and then washed with 3×200 μL HEPES buffer. […] Detection of the FITC-tagged secondary antibody was performed in 200 μL water using a fluorescence plate reader. […]
Carbohydrate Microarray Analysis. […] Kd values for the interaction of 2G12 with oligomannoses 4, 5, 7, 8, 9 (Table 9) were determined using a microtiter-based assay with detection via a fluorescent secondary antibody (see Bryan et al. (2004) J. Am. Chem. Soc. 126, 8640-41).

2G12 antibody [2] = test: 2G12 binding, cleavable linker glycan array in microtiter plates; parameters: species or system human
Method: Cleavable Linker Glycan Array in Microtiter Plates: Further experiments were performed using glycans immobilized within microtiter wells with the cleavable triazole linkers described in Example 7 as shown in FIG. 11.
2G12 Binding: After washing with QH2O, wells were blocked with 10 mM HEPES buffer, pH 7.5/150 mM NaCl buffer (200 μL) containing 0.1% Tween-20 over 1 h at 4° C. The buffer was then removed and 2G12 (17 μg/mL PBS buffer; 200 μL) was incubated in the well over 1 h at 4° C. Wells were then washed with PBS buffer (3×; 200 μL) and fluorescein-conjugated Goat Anti-Human IgG antibody (14 μg/mL PBS buffer; 200 μL) was incubated in the well over 1 h in the dark at 4° C. Wells were then washed with PBS buffer (3×; 200 μL) and fluorescence was measured with an excitation wavelength of 485 nm and emission wavelength of 535 nm.
Further studies were performed using a cleavable linker array to clarify the types of mannose-containing glycans bound by the 2G12 anti-HIV antibodies. […] The results of a binding study using increasing amounts of labeled Manα1,2Manα1,3Manα1,2 Manα1,6Man glycan with a constant amount of 2G12 antibody are shown in FIG. 16.

T1 sequence (Q92183 whole entry): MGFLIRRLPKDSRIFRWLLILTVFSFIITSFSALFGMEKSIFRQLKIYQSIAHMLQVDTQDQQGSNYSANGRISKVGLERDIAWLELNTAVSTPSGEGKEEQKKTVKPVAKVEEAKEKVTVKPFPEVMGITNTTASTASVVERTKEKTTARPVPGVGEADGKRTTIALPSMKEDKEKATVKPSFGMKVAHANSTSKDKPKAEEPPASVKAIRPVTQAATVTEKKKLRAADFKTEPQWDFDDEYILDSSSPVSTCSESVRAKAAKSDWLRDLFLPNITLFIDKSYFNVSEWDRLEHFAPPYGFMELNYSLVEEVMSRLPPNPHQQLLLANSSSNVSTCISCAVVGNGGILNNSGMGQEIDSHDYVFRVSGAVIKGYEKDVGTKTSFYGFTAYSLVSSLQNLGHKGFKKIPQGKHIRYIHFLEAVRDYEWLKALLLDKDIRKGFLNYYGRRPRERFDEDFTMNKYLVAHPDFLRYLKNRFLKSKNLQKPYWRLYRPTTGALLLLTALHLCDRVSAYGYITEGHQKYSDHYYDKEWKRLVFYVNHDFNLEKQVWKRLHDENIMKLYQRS

In the case of OCC1O[C@@H](O)C(O)[C@@H](O)[C@@H]1O[C@@H]1OC(CO)[C@H](O)[C@H](O)C1O (stereo partly shown) [Compound 4], the “Rel. spec. (relative binding activity of 2G12)” value (2G12 anti-HIV antibody) is reported as “− (- = <1000)”, the “chST6GalNAc-I activity, nmol/mg x min^−1” value (chicken ST6GalNAc-I) is reported as 2.90 nmol/mg x min^−1 and the “Relative enzyme activity (%) β(1-3)GlcNAcT-activity” value (β3GlcNAcT) is reported as 100%.

O=[N+]([O-])c1ccc(O[C@@H]2OC(CO)[C@@H](O[C@@H]3OC(CO)[C@H](O)[C@H](O)C3O)[C@H](O)C2O)cc1 (stereo partly shown) [Compound 5] was tested, and the “Rel. spec. (relative binding activity of 2G12)” value (2G12 anti-HIV antibody) was “− (- = <1000)” and the “chST6GalNAc-I activity, nmol/mg x min^−1” value (chicken ST6GalNAc-I) was 1.30 nmol/mg x min^−1.

CC(=O)N[C@H]1C(O)O[C@H](CO)[C@@H](O[C@@H]2O[C@H](CO)[C@H](O)[C@H](O)[C@H]2O)[C@@H]1O (stereo partly shown) [Compound 6] was tested, and the “Rel. spec. (relative binding activity of 2G12)” value (2G12 anti-HIV antibody) was “− (- = <1000)”, the “chST6GalNAc-I activity, nmol/mg x min^−1” value (chicken ST6GalNAc-I) was 12.50* nmol/mg x min^−1 and the “Relative enzyme activity (%) β(1-3)GlcNAcT-activity” value (β3GlcNAcT) was 7%.

CC(=O)N[C@@H]1[C@@H](O)[C@@H](O)[C@@H](CO)O[C@@H]1O [D-GaINAc, reference compound] was tested, and the “chST6GalNAc-I activity, cpm” value (chicken ST6GalNAc-I) was 0 cpm and the “chST6GalNAc-I activity, nmol/mg x min^−1” value (chicken ST6GalNAc-I) was 0.00 nmol/mg x min^−1.

In the case of NCCCCCO[C@H]1O[C@H](CO[C@H]2O[C@H](CO)[C@@H](O)[C@H](O)[C@@H]2O[C@H]2O[C@H](CO)[C@@H](O)[C@H](O)[C@@H]2O)[C@@H](O)[C@H](O[C@H]2O[C@H](CO)[C@@H](O)[C@H](O)[C@@H]2O[C@H]2O[C@H](CO)[C@@H](O)[C@H](O)[C@@H]2O)[C@@H]1O [Oligomannose 5], the “2G12 affinity ranking (in words)” value (2G12 antibody [1]) is reported as “greatest affinity”.

With Man-8#aa Man8-aminoacid [Glycan 144] the “2G12 binding on glycan array (in words)” value (2G12 anti-HIV antibody) was “Binding was observed”.

With Man-9#aa Man9-aminoacid [Glycan 145] the “2G12 binding on glycan array (in words)” value (2G12 anti-HIV antibody) was “smaller level of binding”.

In the case of Manα1,2 Manα1,2 Manα1,3Man, the “2G12 epitope/affinity (in words)” value (2G12 antibody [2]) is reported as “optimal epitope(s) with micromolar affinity to 2G12” and the Kd (2G12 antibody [2]) is reported as 100 nM.

For Manα1,2Manα1,3Manα1,2 Manα1,6Man, the “2G12 epitope/affinity (in words)” value (2G12 antibody [2]) was “optimal epitope(s) with micromolar affinity to 2G12”.
